Experimental data reported in patent US7939064B2 (priority 2006, dated 2011).

Tested on: transient cerebral focal ischemia (left middle cerebral artery occlusion)
Conditions: rat, in vivo

Q: What does the source list for `C[C@]12N[C@H](Cc3ccccc31)c1ccccc12` [MK801, dizocilpine, reference compound]?
A: infarct volume relative to saline-treated control: 61.1%±8.6%; reduction of focal ischemia / infarct size (summary statement): 40%
